Test results reported in patent US4686237A, “Erythro-(E)-7-[3'-C1-3 alkyl-1'-(3",5"-dimethylphenyl)naphth-2'-yl]-3,5-dihydroxyhept-6-enoic acids and derivatives thereof” (Sandoz Pharmaceuticals Corp., priority 1986, dated 1987).
Read-outs that look alike come from different tables or passages of the source.

Tests used:
HMG-CoA reductase = target: T1, HMG-CoA reductase (Rattus norvegicus, UniProt P51639); experiment: Test A. In Vitro Microsomal Assay of HMG-CoA Reductase Inhibition; type: biochemical; settings: rat liver microsomal suspensions, male Sprague-Dawley rats; read-out: IC50 (concentration of the test substance calculated to produce a 50% inhibition of HMG-CoA reductase activity)
T1 construct: In the assay the microsomes are the source of the HMG-CoA reductase enzyme; from tissue; host or cells: rat liver microsomes (male Sprague-Dawley rats)
T1 sequence (P51639 1-887): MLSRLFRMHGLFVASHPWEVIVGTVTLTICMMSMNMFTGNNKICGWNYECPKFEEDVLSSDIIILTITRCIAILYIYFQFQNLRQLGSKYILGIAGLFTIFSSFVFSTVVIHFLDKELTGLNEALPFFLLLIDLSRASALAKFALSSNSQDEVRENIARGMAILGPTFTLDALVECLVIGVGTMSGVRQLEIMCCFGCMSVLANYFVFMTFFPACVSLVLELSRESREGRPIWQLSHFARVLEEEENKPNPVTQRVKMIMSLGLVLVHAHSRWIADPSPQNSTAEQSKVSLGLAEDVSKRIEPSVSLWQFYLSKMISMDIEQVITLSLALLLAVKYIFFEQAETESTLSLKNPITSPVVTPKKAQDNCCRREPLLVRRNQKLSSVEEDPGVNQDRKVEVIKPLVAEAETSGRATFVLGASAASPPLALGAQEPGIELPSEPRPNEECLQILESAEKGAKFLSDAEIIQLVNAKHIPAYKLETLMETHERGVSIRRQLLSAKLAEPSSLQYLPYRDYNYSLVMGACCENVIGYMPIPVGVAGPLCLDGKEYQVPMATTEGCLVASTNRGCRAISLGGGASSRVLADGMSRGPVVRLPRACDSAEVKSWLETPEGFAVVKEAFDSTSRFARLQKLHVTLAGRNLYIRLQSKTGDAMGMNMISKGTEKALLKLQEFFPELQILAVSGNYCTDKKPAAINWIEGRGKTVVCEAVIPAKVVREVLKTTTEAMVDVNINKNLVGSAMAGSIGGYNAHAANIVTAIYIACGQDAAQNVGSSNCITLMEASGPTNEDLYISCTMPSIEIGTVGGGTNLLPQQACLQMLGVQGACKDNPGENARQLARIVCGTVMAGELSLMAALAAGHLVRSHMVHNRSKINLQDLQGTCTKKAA
Description: Test A. In Vitro Microsomal Assay of HMG-CoA Reductase Inhibition:
200 μl. aliquots (1.08-1.50 mg./ml.) of rat liver microsomal suspensions, freshly prepared from male Sprague-Dawley rats (150-225 g. body weight), in Buffer A with 10 mmol. dithiothreitol are incubated with 10 μl. of a solution of the test substance in dimethylacetamide and assayed for HMG-CoA reduotase activity as described in Ackerman et al., J. Lipid Res. 18, 408-413 (1977). In the assay the microsomes are the source of the HMG-CoA reductase enzyme which catalyzes the reduction of HMG-CoA to mevalonate. The assay employs a chloroform extraction to separate the product, [^14 C]mevalonolactone, formed by the HMG-CoA reductase reaction from the substrate, [^14 C]HMG-CoA. [^3 H]mevalonolactoneis added as an internal reference. Inhibition of HMG-CoA reductase is calculated from the decrease in specific activity ([^14 C/^3 H]mevalonate) of test groups compared to controls.
IC50 is the concentration of the test substance in
the assay system calculated to produce a 50%
inhibition of HMG-CoA reductase activity.

cholesterol biosynthesis = experiment: Test C: In Vivo Cholesterol Biosynthesis Inhibition Test; parameters: species or system rat; settings: for ED50: Rattus norvegicus, ip, read-out: ED50 (inhibition of sterol synthesis); for change in sterol synthesis (nCi of sterols formed) from test groups compared to controls: at 0.5 mg./kg.
Excerpt: Test C: In Vivo Cholesterol Biosynthesis Inhibition Test: In vivo studies utilize male Wistar Royal Hart rats weighing 150±20 g. which have been kept for 7-10 days on an altered light cycle (6:30 A.M.-6:30 P.M. dark) housed two per cage and fed powdered Purina Rat Chow and water ad libitum. […] Controls receive vehicle alone. […] Two hours after mid-dark, blood samples are obtained under sodium hexobarbitol anesthesia and the serum is separated by centrifugation. […] The [^14 C]digitonides are then counted by liquid scintillation spectrometry. […] Inhibition of sterol synthesis is calculated from the reduction in the nCi of sterols formed from test groups compared to controls.

[1] = male Wistar Royal Hart rats, [1-14C]acetate i.p.

SMILES	IC50 (HMG-CoA reductase)	ED50 (cholesterol biosynthesis; [1])	change in sterol synthesis (nCi of sterols formed) from test groups compared to controls (cholesterol biosynthesis; [1])	ED50 (cholesterol biosynthesis)
CC[C@H](C)C(=O)O[C@H]1CCC=C2C=C[C@H](C)[C@H](CC[C@@H]3C[C@@H](O)CC(=O)O3)[C@H]21 [Compactin, reference compound]	770 nM	3.5 mg/kg		
Cc1cc(C)cc(-c2c(/C=C/[C@@H]3C[C@@H](O)CC(=O)O3)c(C)cc3ccccc23)c1 (relative stereo) [Example 4, (E)-Trans-6-(2'-[1"-(3"',5"'-dimethylphenyl)-3"-methylnaphth-2"-yl]ethenyl)-4-hydroxy-3,4,5,6-tetrahydro-2H-pyran-2-one]	330 nM		-20%	
CC[C@H](C)C(=O)O[C@H]1C[C@@H](C)C=C2C=C[C@H](C)[C@H](CC[C@@H]3C[C@@H](O)CC(=O)O3)[C@H]21 [Mevinolin, reference compound]				0.41 mg/kg
CCOC(=O)C[C@H](O)C[C@H](O)/C=C/c1c(C)cc2ccccc2c1-c1cc(C)cc(C)c1 (relative stereo) [Example 1, Ethyl erythro-(E)-3,5-dihydroxy-7-[1'-(3",5"-dimethylphenyl)-3-methylnaphth-2'-yl]hept-6-enoate]	80 nM		-35%	
Cc1cc(C)cc(-c2c(/C=C/[C@@H](O)C[C@@H](O)CC(=O)O)c(C)cc3ccccc23)c1 (relative stereo) [Example 2, Sodium erythro-(E)-3,5-dihydroxy-7-[1'-(3",5"-dimethylphenyl)-3'-methylnaphth-2'-yl]hept-6-enoate]	10 nM	0.3 mg/kg		
